How the values were obtained:
[1] = molecular target: Human neutrophil collagenase (HNC) (Homo sapiens, UniProt P22894); assay: Human Neutrophil Collagenase Assay; assay type: biochemical; conditions: fluorogenic peptide substrate, 96-well plate in duplicate; reference inhibitor
[2] = molecular target: Human fibroblast stromelysin (HFS) (Homo sapiens, UniProt P08254); assay: biochemical
Sequence of Human fibroblast stromelysin (HFS) (P08254 100-477): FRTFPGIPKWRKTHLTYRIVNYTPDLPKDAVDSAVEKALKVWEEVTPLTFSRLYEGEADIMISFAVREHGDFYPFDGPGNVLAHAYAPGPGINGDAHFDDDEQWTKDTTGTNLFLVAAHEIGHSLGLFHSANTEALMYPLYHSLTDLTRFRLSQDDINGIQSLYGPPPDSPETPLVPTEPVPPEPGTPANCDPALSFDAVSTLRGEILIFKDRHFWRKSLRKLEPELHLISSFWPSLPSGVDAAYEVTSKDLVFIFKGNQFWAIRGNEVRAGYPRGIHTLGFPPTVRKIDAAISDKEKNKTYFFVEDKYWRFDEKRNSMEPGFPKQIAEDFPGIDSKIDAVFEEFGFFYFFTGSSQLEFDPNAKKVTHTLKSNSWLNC

Sequence of Human neutrophil collagenase (HNC) (P22894 101-467): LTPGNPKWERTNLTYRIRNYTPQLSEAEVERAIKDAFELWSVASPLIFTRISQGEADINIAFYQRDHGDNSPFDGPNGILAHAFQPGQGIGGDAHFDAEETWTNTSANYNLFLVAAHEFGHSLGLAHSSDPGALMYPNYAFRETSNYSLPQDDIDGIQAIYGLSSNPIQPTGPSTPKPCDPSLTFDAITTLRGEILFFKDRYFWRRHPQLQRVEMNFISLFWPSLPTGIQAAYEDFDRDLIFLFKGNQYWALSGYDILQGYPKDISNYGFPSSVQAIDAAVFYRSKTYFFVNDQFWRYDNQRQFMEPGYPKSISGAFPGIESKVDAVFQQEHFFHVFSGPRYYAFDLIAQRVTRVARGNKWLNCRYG

Ki [1]: 722 nM
Ki [2]: 722 nM
SMILES: CCCCC[C@H](CC(=O)NO)C(=O)N[C@H](C(=O)N1CCC[C@H]1CO)C(C)C [Actinonin]
